Residues, ends and D or L forms follow the SMILES beside them. *: point of attachment. PhAc = O=C(Cc1ccccc1)*; NHNH2 = NN*
Point of comparison: CCCCCOc1ccc(-c2ccc(-c3ccc(C(=O)OC)cc3)cc2)cc1, melting point 248 °C. Against it:
- COc1cc(C)nc(NC(=O)NS(=O)(=O)c2cccc3cccnc23)n1 — lower, 181 to 185 °C
- COc1ccc(C=Cc2nnc(C(F)(F)F)o2)cc1 — lower, 117 to 118 °C
- CC(Oc1ccc(Cl)cc1)(C(=O)O)C(F)(F)F (stereo unspecified) — lower, 141 to 142 °C
- CC1(C)CNC(=Nc2ccccc2)S1 — lower, 153 to 155 °C
- CCCCCCCCCCC1Cc2ccc(C(=O)O)cc2N1 (racemic) — lower, 123 to 125 °C
- O=C(O)CCCCCCCCN1NC(c2ccccc2)=C(c2ccccc2)NC1=O — lower, 97 to 100 °C
- Cc1oc(-c2ccccc2)nc1COCc1cccc(COc2cc(Cl)ccc2C(=O)O)c1 — lower, 137 °C
- CCOCc1nc2c(N)nc3ccccc3c2n1CCOCCNC(=O)N1CCOCC1 — lower, 178 to 181 °C
- CN1Cc2c(C#N)ncn2-c2cccc(Cl)c2C1=O — lower, 238 to 240 °C
- CC(C)(C)S(=O)(=O)N[C@H]1CC[C@H](C(=O)O)CC1 — lower, 201 to 203 °C
- O=C(O)CCCC(=O)NCCCCCC1CCSS1 (stereo unspecified) — lower, 60 to 62 °C
- CNC(=O)Nc1snc(SC)c1C#N — higher, 286 °C
- O=C(CCCOc1ccccc1OCc1ccccc1)C(F)(F)F — lower, 50 to 51 °C
- CC(C)(C)c1ccc(-c2nc(NC(=O)C3CCCC3)sc2-c2ccncc2)cc1 — higher, 309 to 311 °C
- CC(C)C(=O)CCSc1cc(C(C)(C)C)c(O)c(C(C)(C)C)c1 — lower, 50 to 53 °C
- CC(=O)Oc1cccc(C(C)=NOCCOc2ccc(CC3SC(=O)NC3=O)cc2)c1 (stereo unspecified) — lower, 30 to 50 °C
- CCOC(=O)c1nc(NCC(c2ccccc2)c2ccccc2)c2ncn([C@@H]3O[C@H](CO)[C@H]4OC(C)(C)O[C@H]43)c2n1 — lower, 126 to 128 °C
- CC(C)(C)OC(=O)NC1CCc2ccccc2NC1=O (stereo unspecified) — lower, 199 to 201 °C
- CCOC(=O)C1=C(C2CC2)Nc2n[nH]cc2C1c1cccc(C#N)c1Br (stereo unspecified) — lower, 168 to 170 °C
- COc1cc(C(=O)N(C(C)C)C2CCCCC2)ccc1Cn1c(-c2ccccc2Cl)nc2cccnc21 — lower, 121 to 123 °C
- COC(=O)C[C@H]1C[C@@H](CCc2c(-c3ccc(F)cc3)c(-c3ccccc3)c(C(=O)NCc3ccccc3)n2C(C)C)OC(C)(C)O1 — lower, 65 to 67 °C
- CCOc1cccc(C(CO)n2nc(C(=O)O)c3c2-c2ccc(OCc4cncnc4)cc2CC3)c1 (stereo unspecified) — lower, 210 to 212 °C
- COC(=O)CCn1c(=O)n(CCN2CCN(c3ccccc3OC)CC2)c(=O)c2sccc21 — lower, 151 to 152 °C
- COc1c(C)cc(-c2nn(C(C)c3oc4ccccc4c(=O)c3-c3cccc(F)c3)c3ncnc(N)c23)cc1C (stereo unspecified) — lower, 234 to 236 °C
- CCCCCCCCCCCCCCOc1ccc(CC(=O)O)cc1 — lower, 86 to 87 °C
- Cn1nnnc1-c1cnc2cc(Br)ccc2c1O — higher, > 300 °C
- CCCOc1ccccc1-c1nc2nc(OC)ncc2c(=O)[nH]1 — lower, 231 °C
- O=C(c1ccccc1)c1cnn2c(-c3ccccc3)ccnc12 — lower, 163 to 165 °C
- CCOCc1nc2c(N)nc3ccccc3c2n1NC1CCCCC1 — lower, 143 to 145 °C
- O=P1(c2ccccc2)c2ccccc2CN1c1ccccc1 (stereo unspecified) — lower, 227 to 229 °C
- Nc1c(Br)cc(-n2cnnc2)cc1C(F)(F)F — lower, 202 to 203 °C
- CCOC(=O)C1OC1C(=O)NC(CC(C)C)C(OC)c1ccccc1 (stereo unspecified) — lower, 108 to 109 °C
- CCCOc1ccccc1-c1[nH]c(=O)c(C#N)cc1C — lower, 213 °C
- Clc1cccc(OC2CCN(CCc3c[nH]c4ccccc34)CC2)c1 — lower, 120 to 123 °C
- Cc1c(CCC(=O)O)c[nH]c1C=O — lower, 128 to 134 °C
- CC1(C)Oc2ccc(OC(F)(F)F)cc2[C@@H](N2Cc3cccnc3C2=O)[C@@H]1O (relative stereo) — not separable, 248 to 250 °C
- CCc1c(C)sc2[nH]c(=O)c(=O)[nH]c12 — higher, > 300 °C
- CC(C)(C)c1ccc(O)c(S(=O)(=O)CCl)c1 — lower, 94 to 95 °C
- CCCCc1nc2c(N)nc3c(c2n1CC(C)C)NCCC3 — lower, 143 to 147 °C
- CCOC(=O)c1cn(C)c2ccc(F)cc2c1=O — lower, 193 to 195 °C
- CC[C@@H](C)[C@@H]1NC(=O)OC1(c1ccccc1)c1ccccc1 — lower, 221 to 223 °C
- O=C1c2ccccc2C(=O)c2oc(-c3ccccc3)nc21 — higher, > 260 °C
- CCOC(=O)C(C1c2ccccc2C=Cc2ccccc21)[N+](=O)[O-] (stereo unspecified) — lower, 101 to 103 °C
- O=C1CCC(CCc2ccc(-n3ccnc3)cc2)=NN1 — lower, 195 to 196 °C
- COc1ccc(/C=C(\C#N)c2ccc(Cl)cc2)cc1OC1CCCC1 — lower, 129 to 137 °C
- Cc1cn2cc(Cl)cc(Cl)c2n1 — lower, 156 to 158 °C
- CCOC(=O)C1Cc2c(OC)cc(Cl)c(OC)c2CO1 (stereo unspecified) — lower, 95 °C
- CC(NC(=O)C1CCCN1C(=O)Cc1ccccc1)C(=O)NN (stereo not drawn) (PhAc-Pro-Ala-NHNH2; configuration not given here) — lower, 142 to 143 °C
- CCCCCCCCCCCCNC(=O)c1cc(Br)c(OCC(=O)O)c(-c2ccccc2F)c1 — lower, 128 to 138 °C
- O=C(O)CCCCCCNC(=O)C1Cc2ccccc2N1S(=O)(=O)c1ccc(-c2cccc(C(F)(F)F)c2)cc1 (stereo unspecified) — lower, 65 to 70 °C
- CCc1nc2c(O)c(CN(C)C)c(C(=O)N(C)C)cc2n1C — lower, 183 to 185 °C
- CCn1c(=O)c2[nH]c(-c3ccc(S(=O)(=O)N4CCN(C)CC4)cc3)nc2n(CC)c1=O — higher, 305 to 307 °C
- O=C(NC[C@H](O)c1ccccc1)c1ccnc(N2CCN(Cc3ccc(F)cc3)C2=O)c1 — lower, 97 to 99 °C
- CC(C)(C)OC(=O)N1CCOc2ccc(Br)cc2S1(=O)=O — lower, 119 °C
- Cc1c(-c2ccccc2)n(-c2ccc(S(C)=O)cc2)c(-c2ccccc2)cc1=O (stereo unspecified) — lower, 242 to 244 °C
- CCCNc1ncnc2c1ncn2C1CC(F)C(CO)O1 (stereo unspecified) — lower, 114 to 115 °C
- O=C(OCc1ccc(Cl)cc1)c1ncn2c1[C@@H]1CCCN1C(=O)c1c(Cl)cccc1-2 — lower, 183 to 184 °C
- CC1(C)COC(=S)N(Cc2ccccc2N)C1 — lower, 90.8 to 92.1 °C
- CC(C)=C(C#N)C(=O)OC(COc1ccc(C(=O)c2ccccc2)c(O)c1)COc1ccc(C(=O)c2ccccc2)c(O)c1 — lower, 145 to 147 °C
- N#CN1C(=O)c2ccccc2C1=O — lower, 189 to 191 °C
- COc1ccc2c(c1)CCC1C2=CCC2(C)C(OC(C)=O)CCC12 (stereo unspecified) — lower, 114 to 116 °C
- CC(C)(C)C1=CC(=C(C#N)C#N)C=C(c2cccs2)S1(=O)=O — lower, 164 to 165 °C
- O=C(Nc1ccc(Cl)c(Cl)c1)OCCCC(O)c1ccccc1 (stereo unspecified) — lower, 86 to 89 °C
- COC(=O)c1ccc(NC(=O)c2cc(C(C)C)c(C(C)C)s2)cc1 — lower, 180 to 182 °C
- Cc1nc(-c2ccc(OC3CCCCO3)cc2)cc(-c2c(Cl)ccc(Cl)c2Cl)c1C#N (stereo unspecified) — lower, 148 to 152 °C
- COc1ccc(C2=NN(Cc3ccc(OCCCCBr)cc3)C(=O)[C@@H]3CC=CC[C@H]23)cc1OC — lower, 42 to 46 °C
- O=C(O)c1ccc2c(c1)CCc1c(Cl)cccc1C2=O — higher, 258 to 260 °C
- NS(=O)(=O)C(F)(F)c1nnc(C(F)(F)S(N)(=O)=O)o1 — lower, 171 to 172 °C
- Cc1c([N+](=O)[O-])cnn1-c1c(Cl)cc(C(F)(F)F)cc1Cl — lower, 91 to 92 °C
- CC(=O)NC(C)c1ccc(CN2CCN(c3cccc(F)n3)CC2)cc1 (stereo unspecified) — lower, 109 to 111 °C
- CC(=O)Nc1ccc(N2CCN(Cc3ccccc3)CC2)cc1 — lower, 159 to 161 °C
- CCn1nc(-c2cccs2)c(C(=O)OCCOC(C)=O)c(Nc2cncc3ccccc23)c1=O — lower, 155 to 157 °C
- CC(=O)O[C@@H]1C=C2C=C3C(=C(C)C(=O)N3C)C[C@]2(C)[C@@H](C)[C@H]1O — lower, 50 to 55 °C
- COC(=O)C(C)c1cccc(C(=O)c2ccccc2)c1 (stereo unspecified) — lower, 50 to 52 °C
- C/C(=C\C=O)c1ccc(OCc2nc(-c3ccccc3)oc2C)cc1 — lower, 94 to 95 °C
- CC(CO)Nc1cc(Oc2nn(C)c(C(F)(F)F)c2Cl)ccc1N (stereo unspecified) — lower, 110 to 112 °C
- CCCCCC(CC(=O)Nc1cc(CNC(N)=O)ccc1C(C)(C)C)c1ccc(OC)cc1OC (stereo unspecified) — lower, 112 to 113 °C
- COc1ccc(-c2nc(Cl)nc(Cl)n2)cc1 — lower, 131 to 134 °C
- CC(C)(C)[Si](C)(C)OCCc1c(N)nc(SCc2ccc3ccccc3c2)nc1O — lower, 156 to 158 °C
- CSc1nc(N2CCN(CCCCN3C(=O)CC4(CCCC4)CC3=O)CC2)ncc1F — lower, 83 to 85 °C
- CC1(C)Oc2ccsc2C(N2CC(=O)NCC2=O)C1O (stereo unspecified) — lower, 132 to 133 °C
- O=C(OCCOCCO)c1ccc(O)c(Cl)c1 — lower, 77.5 to 78 °C
- COc1cc(Cc2sc3ccccc3c2S(=O)(=O)Nc2onc(C)c2Br)cc(OC)c1OC — lower, 154 to 156 °C
- Cc1ccc(-c2ccc3c(c2)C=C(C(=O)O)CC(C)O3)cc1 (stereo unspecified) — lower, 224 to 225 °C
- OC1(c2ccc(Cl)c(Cl)c2)CCNCC1 — lower, 144 to 146 °C
- O=[N+]([O-])c1[nH]c(-c2c(Cl)cc(C(F)(F)F)cc2Cl)nc1C(F)(F)F — not separable, 244 to 252 °C
- CCCc1c2c(c(OC)c3c(=O)cc(C(=O)OC)oc13)CCCC2 — lower, 92 to 93 °C
- Cn1ccc2cc(N3Cc4ccc(OC(F)F)cc4C3=O)ccc21 — lower, 180 to 182 °C
- COC(=O)c1ccc2cc([C@H]3OC[C@@H](S[C@H](C)[C@](O)(Cn4cncn4)c4ccc(F)cc4F)CO3)ccc2c1 — lower, 153 °C
- [N-]=[N+]=Nc1cc(C2COCOC2)c2occc2c1 — lower, 102 to 104 °C
- COc1ccc(OC2c3cc(C#N)ccc3OC(C)(C)C2O)nn1 (stereo unspecified) — lower, 224 to 227 °C
- C=Cc1ccc(-c2ccc(OC(C)CCCCCC)cc2)cc1 (stereo unspecified) — lower, 80.6 °C
- CCC(=O)Nc1ccc(N)c(=O)cc1 — lower, 203 to 205 °C
- Cc1cc(CN(Cc2cccs2)c2sc(-c3ccc(C(F)(F)F)cc3)nc2C)ccc1OC(C)(C)C(=O)O — lower, 100 °C
- Oc1c(I)cc(Br)cc1I — lower, 122 to 124 °C
- Cc1cccc(Nn2c(C)c(C)[nH]c2=S)c1 — lower, 230 °C
- Nc1scc2c(C(=O)O)nn(-c3ccc(Cl)cc3)c(=O)c12 — higher, > 300 °C
- Cc1nnsc1C(=O)Nc1ccc(-n2nc(C(F)(F)F)cc2OC(F)F)cc1 — lower, 122 to 123 °C
- CC(C)n1c(NN)nc2ccccc2c1=O — lower, 123 to 124 °C
- ON=C1c2ncc(Cl)cc2C=CC1Cl (stereo unspecified) — lower, 202 °C
